Experimental data published in paper PMC6940897, “Less Cytotoxic Protoflavones as Antiviral Agents: Protoapigenone 1′-O-isopropyl ether Shows Improved Selectivity Against the Epstein–Barr Virus Lytic Cycle” (International Journal of Molecular Sciences, 2019).
“Also recorded” adds a separate entry of the source.

Experiments:
[1] = MTT cytotoxicity on the HIV host cells; type: cell-based; conditions: human, U373-CD4-CCR5 cells, MTT, 48 h, n=2; tested up to 100 µM (compound 9 up to 500 µM); read-out: Cytotoxic IC50 ± SEM
Protocol: (§1) The U373-CD4-CCR5 cell line was obtained from the AIDS Research and Reagent Program, NIAID. Cells were cultured according to the protocol of the provider with 10% heat-inactivated fetal bovine serum (Lonza, Maastricht, The Netherlands) supplemented with 2 mM L-glutamine, 100 units/mL of penicillin, and 100 µg/mL streptomycin (Invitrogen, Merelbeke, Belgium). Pseudotyped viral particules bearing the ADA HIV Env were produced, as described previously.
(§2) Antiviral activity was assessed while using a Pseudotype Virus Assay, allowing for one cycle of viral replication. The U373-CD4-CCR5 cells were infected by pseudotyped virus pNL4.3ΔenvLuc-ADA 8 using spinoculation at 1200 g during 2 h in the presence of compounds and cultured for two consecutive days in the presence of the compounds. After 48 h, luciferase activity expressed as Relative Light Units was measured (Luciferase System kit, Promega, The Netherlands). Drug cytotoxicity was evaluated while using MTT (3-(4,5-dimethylthiazol-2-yl)-2,5-diphenyltetrazolium bromide, Sigma, Belgium) 48 h after incubation with the compounds by measuring A540 and A690 using a POLARstar Omega Plate Reader (BMG Lab Technologies, Belgium) after 48 h of incubation with the compounds. The value of OD540–OD690 was calculated.

[2] = tested on: EBV lytic cycle (expression of EBV Rta); test: Inhibition of EBV lytic cycle: immunoblot of Rta expression in P3HR1 cells after lytic induction; type: cell-based, Epstein–Barr Virus; conditions: for IC50: human gammaherpesvirus 4, P3HR-1, 24 h after lytic induction with SB and TPA; for IC50 / concentration causing a marked reduction in the Rta levels: immunoblot; for selectivity ratio at 24 h: human, cytotoxic IC50 (P3HR1) / anti-EBV Rta IC50, read-out: Selectivity of the anti-EBV vs. cytotoxic effect (ratio of the corresponding IC50 values); for inhibition of EBV lytic cycle, first screening (in words): 0.25 µM, sodium butyrate + TPA, 24 h; for concentration causing a marked reduction in the Rta levels: 24 h after lytic induction
Protocol: Compounds 2 and 6–28 were tested for their activity on the EBV lytic cycle. To assess this, the P3HR1 cells were treated with sodium butyrate and TPA for 24 h. As expected, lytic protein Rta was expressed after lytic induction. As a first screening, the cells were treated with protoapigenone (2), used as a positive control, or compounds 6–28 at the induction of lytic cycle for 24 h.
(§3) EBV-positive BL cell line P3HR1 cells were cultured in RPMI 1640 medium. Culture media were supplemented with 10% fetal calf serum. P3HR1 cells were treated with 3 mM sodium butyrate and 30 nM 12-O-tetradecanoylphobol-13-actetae (TPA) to induce the EBV lytic cycle.
P3HR1 cells were lysed in mRIPA buffer (50 mM Tris-HCl, pH 7.8, 150 mM NaCl, 5 mM EDTA, 0.5% Triton X-100, 0.5% NP-40). Approximately 5% of the lysate was loaded to a gel and then separated by electrophoresis in 10% SDS-PAGE. The proteins in the gel were electroblotted onto a polyvinylidene difluoride (PVDF) blotting membrane while using a Hoefer transfer system. Rta was detected while using mouse anti-Rta monoclonal antibody (Argene, Verniolle, France). α-Tubulin was detected using mouse anti-α-tubulin monoclonal antibody (Abcam, Cambridge, UK). Primary antibodies were detected using horseradish peroxidase-conjugated secondary antibodies (Cell Signaling Technology, Danvers, MA, USA) and then visualized using SuperSignal West Pico Chemiluminescent substrate (Thermo Fisher Scientific, Waltham, MA, USA).

[3] = MTT cytotoxicity assay on P3HR1 cells; type: cell-based; conditions: human, 24 h
Protocol: as §3
(§4) P3HR1 cells (5 × 10^4) were seeded in wells of a 96-well plate and then cultured for 24 h in 100 µL of RPMI 1640 medium containing protoapigenone or its analogs. Subsequently, 1% Triton X-100 was added as a […] control. Cytotoxicity was determined by Cell Proliferation Kit I (Roche, Basel, Switzerland). An aliquot of 10 µL of the MTT labeling reagent was added to each well and the plate was incubated for 4 h at 37°C. Afterwards, 100 µL solubilization solution was added to each well to dissolve insoluble formazan and was incubated overnight. Optical density was measured at 595 nm and 650 nm.

[4] = tested on: EBV lytic cycle (expression of EBV Rta); design: method as in PMID 21490247; conditions: 0.25 µM; cited from earlier work
[5] = tested on: P3HR1 cells; test: MTT cytotoxicity assay on P3HR1 cells; type: cell-based
Protocol: as §3, §4

[6] = tested on: HIV-1; test: HIV-1 pseudotype virus assay (one cycle of viral replication, luciferase readout); type: cell-based
Protocol: Compounds 2, 6–14, and 21–28 were tested against HIV-1 while using a pseudotype virus assay allowing only one cycle of viral replication and being more sensitive for compounds targeting the early steps of HIV replication, such as reverse transcription and integration. […] While this represents a rather weak activity, it might still be of interest, since this compound was not cytotoxic on the host cells at as high as 500 µM concentration.
as §1, with “Pseudotyped viral particules bearing the ADA HIV Env were produced, as described previously.” left out
as §2, with “The U373-CD4-CCR5 cells were infected by pseudotyped virus pNL4.3ΔenvLuc-ADA 8 using spinoculation at 1200 g during 2 h in the presence of compounds and cultured for two consecutive days in the presence of the compounds.” left out

[7] = tested on: U373-CD4-CCR5 cells; test: MTT cytotoxicity on the HIV host cells; type: cell-based; conditions: for IC50: U373-CD4-CCR5 cells, MTT, 48 h, n=2, tested up to 100 µM (compound 9 up to 500 µM), read-out: Cytotoxic IC50 ± SEM
Protocol: as §1, §2

## O=C1C=CC(O)(c2cc(=O)c3c(O)cc(O)cc3o2)C=C1 [Compound 2, protoapigenone]
[1]
  IC50 at 48 h: 0.22 ± 0.003 µM
[2]
  IC50: 0.127 µM
  selectivity ratio at 24 h: 30.1
[3]
  IC50 at 24 h: 3.86 µM
[4]
  activity against EBV lytic cycle (in words): strong activity

## CC(C)OC1(c2cc(=O)c3c(O)cc(O)cc3o2)C=CC(=O)C=C1 [Compound 6, protoapigenone 1′-O-isopropyl ether]
[1]
  IC50 at 48 h: 2.09 ± 0.13 µM
[2]
  inhibition of EBV lytic cycle, first screening (in words): can inhibit EBV lytic cycle
  concentration causing a marked reduction in the Rta levels: 0.50 µM
  IC50: 0.467 µM
  selectivity ratio at 24 h: 73
[3]
  IC50 at 24 h: 34.1 µM
[5]
  cytotoxic activity compared to protoapigenone (in words): much weaker; also recorded: an order of magnitude lower cytotoxic effect

## CCCCOC1(c2cc(=O)c3c(O)cc(O)cc3o2)C=CC(=O)C=C1 [Compound 7]
[1]
  IC50 at 48 h: 0.25 ± 0.002 µM
[2]
  inhibition of EBV lytic cycle, first screening (in words): can inhibit EBV lytic cycle
  concentration causing a marked reduction in the Rta levels: 0.25 µM
  IC50: 0.208 µM
  selectivity ratio at 24 h: 9.8
[3]
  IC50 at 24 h: 2.04 µM
[5]
  cytotoxic activity compared to protoapigenone (in words): similarly active as protoapigenone

## C#CCOC1(c2cc(=O)c3c(O)cc(O)cc3o2)C=CC(=O)C=C1 [Compound 8, protoapigenone 1′-O-propargyl ether]
[1]
  IC50 at 48 h: 0.67 ± 0.03 µM
[2]
  inhibition of EBV lytic cycle, first screening (in words): can inhibit EBV lytic cycle
  concentration causing a marked reduction in the Rta levels: 0.50 µM
  IC50: 0.285 µM
  selectivity ratio at 24 h: 17.3
[3]
  IC50 at 24 h: 4.93 µM
[5]
  cytotoxic activity compared to protoapigenone (in words): similarly active as protoapigenone

## O=C1CCC(O)(c2cc(=O)c3c(O)cc(O)cc3o2)CC1 [Compound 9, Tetrahydroprotoapigenone]
[6]; Human immunodeficiency virus 1, 48 h, read-out: inhibition of viral infection
  inhibition at 100 µM: ~50%
[6]; pseudotype virus assay, 100 µM where stated
  antiretroviral activity against HIV-1 (in words): inhibits HIV-1 infection; also recorded: weak antiretroviral activity
[1]
  IC50 at 48 h: > 500 µM
[7]; at as high as 500 µM
  cytotoxicity on the host cells (in words): not cytotoxic

## COC1(c2cc(=O)c3c(O)cc(O)cc3o2)CCC(=O)CC1 [Compound 10]
[1]
  IC50 at 48 h: > 100 µM

## CCOC1(c2cc(=O)c3c(O)cc(O)cc3o2)CCC(=O)CC1 [Compound 11]
[1]
  IC50 at 48 h: > 100 µM

## CCCOC1(c2cc(=O)c3c(O)cc(O)cc3o2)CCC(=O)CC1 [Compound 12]
[1]
  IC50 at 48 h: > 100 µM

## CC(C)OC1(c2cc(=O)c3c(O)cc(O)cc3o2)CCC(=O)CC1 [Compound 13]
[1]
  IC50 at 48 h: > 100 µM

## CCCCOC1(c2cc(=O)c3c(O)cc(O)cc3o2)CCC(=O)CC1 [Compound 14]
[1]
  IC50 at 48 h: ~6.37 µM

## COC1CC(=NO)C=CC1(OC(C)C)c1cc(=O)c2c(O)cc(O)cc2o1 (stereo not shown) [Compound 21]
[1]
  IC50 at 48 h: > 100 µM

## CCCCOC1(c2cc(=O)c3c(O)cc(O)cc3o2)C=CC(=NO)CC1OC (stereo not shown) [Compound 22]
[1]
  IC50 at 48 h: > 100 µM

## C#CCOC1(c2cc(=O)c3c(O)cc(O)cc3o2)C=CC(=NO)CC1OC (stereo not shown) [Compound 23]
[1]
  IC50 at 48 h: ~89.5 µM

## COC1CC(=NO)C=CC1(OC(C)C)c1cc(=O)c2c(O)cc(O)cc2o1 (stereo not shown) [Compound 24]
[7]
  IC50: > 100 µM

## CCCCOC1(c2cc(=O)c3c(O)cc(O)cc3o2)C=CC(=NO)CC1OC (stereo not shown) [Compound 25]
[7]
  IC50: 53.88 ± 0.35 µM

## C#CCOC1(c2cc(=O)c3c(O)cc(O)cc3o2)C=CC(=NO)CC1OC (stereo not shown) [Compound 26]
[7]
  IC50: > 100 µM

## O=c1cc(C2(O)CCC(=NO)CC2)oc2cc(O)cc(O)c12 (stereo not shown) [Compound 27]
[1]
  IC50 at 48 h: > 100 µM

## CCCCOC1(c2cc(=O)c3c(O)cc(O)cc3o2)CCC(=NO)CC1 (stereo not shown) [Compound 28]
[1]
  IC50 at 48 h: 27 ± 8.4 µM
